Measured values as given in patent publication US10052330B2, “Substituted pyrido[3,4-b]pyrazines as Syk inhibitors” (HUTCHISON MEDIPHARMA LIMITED, priority 2011, dated 2018).
Where two headings read alike, the source gives them in different places.

Columns and labels:
Syk kinase = Syk kinase (Homo sapiens, UniProt P43405); assay: Syk kinase enzymatic assay (Kit-Tyr 2 Peptide); type: biochemical; details: 8 concentrations, 1 μM down to 0.0003 μM; upper bound of each range is 'less than'; read-out: IC50: Enzymatic Activity (Syk kinase)
[1] = test system: Bone marrow mast cells (BMMCs); assay: IgE-induced LAT phosphorylation in bone marrow mast cells; type: cell-based, mice; details: Mus musculus, BMMC; BMMCs from female BALB/C mice, sensitized with SPE-7, stimulated with DNP-BSA; upper bound is 'less than'; read-out: IC50, IgE-induced LAT phosphorylation
RBL-2H3 cells = assay: IgE-induced Beta-hexosaminidase secretion in RBL-2H3 cells; type: cell-based; details: Rattus norvegicus, upper bound of each range is 'less than', read-out: IC50, IgE-induced Beta-hexosaminidase secretion
[2] = RBL-2H3, RBL-2H3 cells sensitized with SPE-7, stimulated with DNP-BSA
[3] = RBL-2H3 cells sensitized with SPE-7, stimulated with DNP-BSA

Row | Structure (SMILES) | IC50 (Syk kinase) [nM] | IC50 [1] [nM] | IC50 (RBL-2H3 cells; [2]) [nM] | IC50 (RBL-2H3 cells; [3]) [nM]
1 | c1cnc2c(N3CCC4(CCNC4)C3)nc(-c3ccc(N4CCOCC4)cc3)cc2n1 (centres unmarked) [Compound 71] | 1 to 100 | 100 to 1000 | 100 to 1000 | 
2 | c1cnc2c(NC[C@@H]3CNCCO3)nc(-c3ccc(N4CCOCC4)nc3)cc2n1 [Compound 99] | 1 to 100 | 100 to 1000 | 1 to 100 | 
3 | c1cnc2c(N3CCC4(CCCNC4)C3)nc(-c3ccc(N4CCOCC4)cc3)cc2n1 (centres unmarked) [Compound 105] | 1 to 100 | 100 to 1000 | 1 to 100 | 
4 | Cc1cc(-c2cc3nccnc3c(NC[C@@H]3CNCCO3)n2)ccc1N1CCOCC1 [Compound 116] | 1 to 100 | 100 to 1000 | 1 to 100 | 
5 | c1cnc2c(NC3CC3)nc(-c3ccc(N4CCOCC4)cc3)cc2n1 [Compound 181] |  | 100 to 1000 | 100 to 1000 | 
6 | c1cc(CNc2nc(-c3ccc(N4CCOCC4)cc3)cc3nccnc23)ccn1 [Compound 184] |  | 100 to 1000 | 100 to 1000 | 
7 | CN1CCC(c2ccc(-c3cc4nccnc4c(NC[C@@H]4CN(S(C)(=O)=O)CCO4)n3)cc2)CC1 [Compound 460] | 1 to 100 |  | 1 to 100 | 
8 | CS(=O)(=O)N1CCO[C@H](CNc2nc(-c3ccc(N4CCNCC4)cc3)cc3nccnc23)C1 [Compound 462] | 1 to 100 |  | 100 to 1000 | 
9 | CN1CCC(c2ccc(-c3cc4nccnc4c(NC[C@@H]4CN(C(=O)C(F)F)CCO4)n3)cc2)CC1 [Compound 463] | 1 to 100 |  | 100 to 1000 | 
10 | CCN1CCC(c2ccc(-c3cc4nccnc4c(NC[C@@H]4CN(C(=O)C(F)F)CCO4)n3)cc2)CC1 [Compound 464] | 1 to 100 |  | 100 to 1000 | 
11 | CS(=O)(=O)N1CCC(c2ccc(-c3cc4nccnc4c(NC[C@@H]4CN(C(=O)C(F)F)CCO4)n3)cc2)CC1 [Compound 465] | 1 to 100 |  | 1 to 100 | 
12 | CC(=O)N1CCN(c2ccc(-c3cc4nccnc4c(NC[C@H]4CN(C(=O)C(F)F)CCO4)n3)cc2)CC1 [Compound 466, (S)-1-(2-((7-(4-phenylpiperazin-1-yl)ethanone[4,3-b]pyrazin-5-ylamino)methyl)morpholino)-2,2-difluoroethanone] | 1 to 100 |  |  | 1 to 100
13 | CS(=O)(=O)N1CCN(c2ccc(-c3cc4nccnc4c(NC[C@@H]4CN(C(=O)C(F)F)CCO4)n3)cc2)CC1 [Compound 467] | 1 to 100 |  | 1 to 100 | 
14 | CC(=O)N1CCC(c2ccc(-c3cc4nccnc4c(NC[C@@H]4CN(S(C)(=O)=O)CCO4)n3)cc2)CC1 [Compound 468] | 1 to 100 |  | 100 to 1000 | 
15 | CS(=O)(=O)N1CCC(c2ccc(-c3cc4nccnc4c(NC[C@@H]4CN(S(C)(=O)=O)CCO4)n3)cc2)CC1 [Compound 469] | 1 to 100 |  | 1 to 100 | 
16 | CC(=O)N1CCC(c2ccc(-c3cc4nccnc4c(NC[C@@H]4CN(C(=O)C(F)F)CCO4)n3)cc2)CC1 [Compound 470] | 1 to 100 |  | 1 to 100 | 
17 | CCN1CCC(c2ccc(-c3cc4nccnc4c(NC[C@@H]4CN(S(C)(=O)=O)CCO4)n3)cc2)CC1 [Compound 479, (R)-7-(4-(1-ethylpiperidin-4-yl)phenyl)-N-((4-(methylsulfonyl)morpholin-2-yl)methyl)pyrido[4,3-b]pyrazin-5-amine] | 1 to 100 |  |  | 1 to 100
18 | CCN1CCN(c2ccc(-c3cc4nccnc4c(NC[C@@H]4CN(S(C)(=O)=O)CCO4)n3)cc2)CC1 [Compound 487] | 1 to 100 |  | 100 to 1000 | 
19 | CCN1CCN(c2ccc(-c3cc4nccnc4c(NC[C@@H]4CN(C(=O)C(F)F)CCO4)n3)cc2)CC1 [Compound 488] | 1 to 100 |  | 1 to 100 | 
20 | O=C(C(F)F)N1CCO[C@H](CNc2nc(-c3ccc(N4CCN(CCO)CC4)cc3)cc3nccnc23)C1 [Compound 489] | 1 to 100 |  | 1 to 100 | 
21 | O=C(C(F)F)N1CCO[C@H](CNc2nc(-c3ccc(N4CCN(CCCO)CC4)cc3)cc3nccnc23)C1 [Compound 490] | 1 to 100 |  | 1 to 100 | 
22 | CS(=O)(=O)N1CCO[C@H](CNc2nc(-c3ccc(C4CCN(CCO)CC4)cc3)cc3nccnc23)C1 [Compound 493] | 1 to 100 |  | 100 to 1000 | 
23 | CS(=O)(=O)N1CCO[C@H](CNc2nc(-c3ccc(C4CCN(CCCO)CC4)cc3)cc3nccnc23)C1 [Compound 494] | 1 to 100 |  | 100 to 1000 | 
24 | CS(=O)(=O)N1CCC(c2ccc(-c3cc4nccnc4c(NCC4CNC(=O)CO4)n3)cc2)CC1 (centres unmarked) [Compound 501] | 1 to 100 |  | 1 to 100 | 
25 | CCS(=O)(=O)N1CCN(c2ccc(-c3cc4nccnc4c(NC[C@@H]4CN(C(C)=O)CCO4)n3)cc2)CC1 [Compound 510] | 1 to 100 |  | 100 to 1000 | 
26 | O=C(CCO)N1CCC(c2ccc(-c3cc4nccnc4c(NC[C@@H]4CNCCO4)n3)cc2)CC1 [Compound 512] | 1 to 100 |  | 100 to 1000 | 

Now from value to molecule, other results behind:

Row | IC50 (Syk kinase) [nM] | Structure (SMILES) | IC50 [1] [nM] | IC50 (RBL-2H3 cells; [2]) [nM] | IC50 (RBL-2H3 cells; [3]) [nM]
27 | 1 to 100 | COc1ccc(-c2cc3nccnc3c(NCC3CCCNC3)n2)cc1 (centres unmarked) [Compound 10] | 100 to 1000 | 100 to 1000 | 
28 | 1 to 100 | CN(C)c1ccc(-c2cc3nccnc3c(NCC3CCCNC3)n2)cc1 (centres unmarked) [Compound 12] | 100 to 1000 | 1 to 100 | 
29 | 1 to 100 | COc1ccc(-c2cc3nccnc3c(NC[C@H]3CCCNC3)n2)cc1F [Compound 35] | 100 to 1000 | 1 to 100 | 
30 | 1 to 100 | CNc1ccc(-c2cc3nccnc3c(NCC3CCCNC3)n2)cc1 (centres unmarked) [Compound 44] | 100 to 1000 | 1 to 100 | 
31 | 1 to 100 | c1cnc2c(NC[C@H]3CCCNC3)nc(-c3ccc(N4CCCC4)cc3)cc2n1 [Compound 70] | 100 to 1000 | 1 to 100 | 
32 | 1 to 100 | Nc1ccc(-c2cc3nccnc3c(NC[C@H]3CCCNC3)n2)cc1Cl [Compound 81] | 100 to 1000 | 100 to 1000 | 
33 | 1 to 100 | CNc1ccc(-c2cc3nccnc3c(NC[C@H]3CCCNC3)n2)cc1 [Compound 82] | 100 to 1000 | 1 to 100 | 
34 | 1 to 100 | COc1ccc(-c2cc3nccnc3c(NC[C@H]3CCCNC3)n2)cc1Cl [Compound 93] | 100 to 1000 | 1 to 100 | 
35 | 1 to 100 | Cc1cc(-c2cc3nccnc3c(NC[C@H]3CCCNC3)n2)ccc1N1CCOCC1 [Compound 94] | 100 to 1000 | 100 to 1000 | 
36 | 1 to 100 | CN(C)c1ccc(-c2cc3nccnc3c(NC[C@@H]3CNCCO3)n2)cc1 [Compound 107] | 100 to 1000 | 1 to 100 | 
37 | 1 to 100 | CNc1ccc(-c2cc3nccnc3c(NC[C@@H]3CNCCO3)n2)cc1F [Compound 137] | 100 to 1000 | 1 to 100 | 
38 | 1 to 100 | CNc1ccc(-c2cc3nccnc3c(NC[C@H]3CCCNC3)n2)cc1F [Compound 140] | 100 to 1000 | 1 to 100 | 
39 | 1 to 100 | CNc1ccc(-c2cc3nccnc3c(NC[C@@H]3CNCCO3)n2)cc1C#N [Compound 473] |  | 1 to 100 | 
40 | 1 to 100 | CN(C)c1ccc(-c2cc3nccnc3c(NC[C@@H]3CNCCO3)n2)cc1C#N [Compound 474] |  | 1 to 100 | 
41 | 1 to 100 | OCCCOc1ccc(-c2cc3nccnc3c(NC[C@@H]3CNCCO3)n2)cc1 [Compound 476, (S)-3-(4-(5-(morpholin-2-ylmethylamino)pyrido[4,3-b]pyrazin-7-yl)phenoxy)propan-1-ol] |  | 1 to 100 | 
42 | 100 to 1000 | CC(=O)OCCCOc1ccc(-c2cc3nccnc3c(NC[C@@H]3CNCCO3)n2)cc1 [Compound 477, (S)-3-(4-(5-(morpholin-2-ylmethylamino)pyrido[4,3-b]pyrazin-7-yl)phenoxy)propyl acetate] |  | 1 to 100 | 
43 | 1 to 100 | CN(CCO)c1ccc(-c2cc3nccnc3c(NCC3CNCCC3(F)F)n2)cc1 (centres unmarked) [Compound 485, 2-((4-(5-((4,4-difluoropiperidin-3-yl)methylamino)pyrido[4,3-b]pyrazin-7-yl)phenyl)(methyl)amino)ethanol] |  | 1 to 100 | 
44 | 1 to 100 | O=S(=O)(C1CC1)N1CCC(c2ccc(-c3cc4nccnc4c(NC[C@@H]4CNCCO4)n3)cc2)CC1 [Compound 497] |  | 1 to 100 | 
45 | 1 to 100 | CNS(=O)(=O)N1CCC(c2ccc(-c3cc4nccnc4c(NC[C@@H]4CNCCO4)n3)cc2)CC1 [Compound 498] |  | 1 to 100 | 
46 | 1 to 100 | CN(C)S(=O)(=O)N1CCC(c2ccc(-c3cc4nccnc4c(NC[C@@H]4CNCCO4)n3)cc2)CC1 [Compound 499] |  | 1 to 100 | 
47 | 1 to 100 | CS(=O)(=O)N1CCC(Nc2ccc(-c3cc4nccnc4c(NC[C@@H]4CNCCO4)n3)cc2)CC1 [Compound 500] |  | 100 to 1000 | 
48 | 1 to 100 | CS(=O)(=O)N1CCCN(c2ccc(-c3cc4nccnc4c(NC[C@@H]4CNCCO4)n3)cc2)CC1 [Compound 502] |  | 100 to 1000 | 
49 | 1 to 100 | CS(=O)(=O)N1CCN(Cc2ccc(-c3cc4nccnc4c(NC[C@@H]4CNCCO4)n3)cc2)CC1 [Compound 503] |  | 100 to 1000 | 
50 | 1 to 100 | CCC(=O)N1CCC(c2ccc(-c3cc4nccnc4c(NC[C@@H]4CNCCO4)n3)cc2)CC1 [Compound 504] |  | 1 to 100 | 
51 | 1 to 100 | COCC(=O)N1CCC(c2ccc(-c3cc4nccnc4c(NC[C@@H]4CNCCO4)n3)cc2)CC1 [Compound 505] |  | 1 to 100 | 
52 | 1 to 100 | NC(=O)N1CCC(c2ccc(-c3cc4nccnc4c(NC[C@@H]4CNCCO4)n3)cc2)CC1 [Compound 506] |  | 100 to 1000 | 
53 | 1 to 100 | O=C(CO)N1CCC(c2ccc(-c3cc4nccnc4c(NC[C@@H]4CNCCO4)n3)cc2)CC1 [Compound 511] |  | 1 to 100 | 
